# Values of other authors in patent publication US6723506B2, “Method of identifying PAX8-PPAR gamma-nucleic acid molecules” (Brigham and Women's Hospital, priority 2000, dated 2004).
# Tested on: PML-RAR (retinoic acid receptor α) translocation
# Conditions: patients harboring the PML-RAR translocation
smiles,measurement,value
CC1=C(/C=C/C(C)=C/C=C/C(C)=C/C(=O)O)C(C)(C)CCC1 [all-trans retinoic acid],remission in APML patients,induces remission in nearly every patient
